Results from PubChem BioAssay (NCI).
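Briefly, cells in 96-well plates were exposed to five compound concentrations for 48 h, and endpoints were estimated by linear interpolation. GI50: concentration for 50% inhibition of growth. TGI denotes the concentration required for complete inhibition of growth.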

Key:
Assay in all cases: NCI-60 cell line screen, 48 h
HL-60(TB) leukemia = test system: HL-60(TB) leukemia
MALME-3M melanoma = test system: MALME-3M melanoma
UACC-257 melanoma = test system: UACC-257 melanoma
K-562 leukemia = test system: K-562 leukemia
OVCAR-3 ovarian = test system: OVCAR-3 ovarian
OVCAR-5 ovarian = test system: OVCAR-5 ovarian
786-0 renal = test system: 786-0 renal
MOLT-4 leukemia = test system: MOLT-4 leukemia
LXFL 529 NSCLC = test system: LXFL 529 NSCLC
KM20L2 colon = test system: KM20L2 colon

| Compound | GI50 (HL-60(TB) leukemia) [µM] | TGI (HL-60(TB) leukemia) [µM] | GI50 (MALME-3M melanoma) [µM] | TGI (MALME-3M melanoma) [µM] | GI50 (UACC-257 melanoma) [µM] | TGI (UACC-257 melanoma) [µM] | GI50 (K-562 leukemia) [µM] | TGI (K-562 leukemia) [µM] | GI50 (OVCAR-3 ovarian) [µM] | TGI (OVCAR-3 ovarian) [µM] | GI50 (OVCAR-5 ovarian) [µM] | TGI (OVCAR-5 ovarian) [µM] | GI50 (786-0 renal) [µM] | TGI (786-0 renal) [µM] | GI50 (MOLT-4 leukemia) [µM] | TGI (MOLT-4 leukemia) [µM] | TGI (LXFL 529 NSCLC) [µM] | TGI (KM20L2 colon) [µM] |
| --- | --- | --- | --- | --- | --- | --- | --- | --- | --- | --- | --- | --- | --- | --- | --- | --- | --- | --- |
| Cc1ccc(C)c2c1C(=O)N(c1ccc(F)cc1F)C2=O | > 100 | > 100 | > 100 | > 100 | > 100 | > 100 | > 100 | > 100 | > 100 | > 100 | > 100 | > 100 | > 100 | > 100 | > 100 | > 100 | – | – |
| O=C(CN1CCN(Cc2ccccc2Cl)CC1)NC1CC(=O)c2c(Br)sc(Br)c21 (stereo unspecified) | 23.3 | 57.4 | 21.6 | 43.8 | 22.3 | 44 | 29.6 | > 100 | 20.8 | 43.4 | 51.4 | > 100 | 19.4 | 40.4 | 27.1 | 85.3 | – | – |
| COc1ccc(-c2cc(/C=C3\C(=O)Nc4cc(Cl)ccc43)[nH]n2)cc1 | 2.26 | 6.33 | 6.23 | > 100 | 26.3 | > 100 | 1.56 | 32.3 | 2.59 | 8.48 | 5.89 | > 100 | 9.71 | > 100 | 4.17 | > 100 | – | – |
| COC(=O)c1ccc2nc(-c3cc4ccccc4n3C)n(CCCCOc3cc4c(cc3OC)C(=O)N3CCC[C@H]3C=N4)c2c1 | 0.273 | – | 1.07 | 2.83 | 1.17 | 3.78 | 0.286 | – | 0.214 | 0.51 | 0.811 | 2.06 | 0.789 | 2.46 | 0.298 | – | – | – |
| CCN1CCC(CC(=O)Nc2n[nH]c3nnc(-c4cccc(F)c4F)cc23)CC1 | > 25 | > 25 | > 25 | > 25 | > 25 | > 25 | > 25 | > 25 | 3.65 | > 25 | > 25 | > 25 | > 25 | > 25 | > 25 | > 25 | – | – |
| COC(=O)Cc1c([C@@]2(C)CCCC(C)(C)C2)ccc2c1C(=O)OC2 | – | 13.3 | – | 38 | – | 22.8 | – | 19.4 | – | 20.7 | – | – | – | 30.8 | – | 18.2 | 27.2 | – |
| COc1ccc(Nc2nc3cc(C(F)(F)F)ccc3nc2-c2ccccc2)cc1OC | – | – | – | 85.8 | – | 99.4 | – | > 100 | – | > 100 | – | > 100 | – | > 100 | – | > 100 | > 100 | – |
| CCCCCCC1N=C(N)N=C(N)N1c1cccc(Cl)c1 (stereo unspecified) | 1.14 | 10.7 | 0.765 | 15.6 | 6.37 | 29.5 | 0.841 | 24.6 | 0.863 | 10.5 | 0.794 | 23.1 | 0.289 | 13.3 | 0.94 | 17.8 | – | – |
| OCC1OC2c3ccccc3COC2C1OCc1ccccc1 (stereo unspecified) | – | – | – | > 100 | – | > 100 | – | > 100 | – | > 100 | – | > 100 | – | > 100 | – | > 100 | > 100 | > 100 |
| CNC(=O)c1nn(C)c2c1C(C)(C)Cc1cnc(Nc3cccc(N4CCN(C)CC4)c3)nc1-2 | 0.596 | 6.64 | 0.223 | 5.59 | 0.386 | 7.09 | 0.443 | > 50 | 0.505 | 13.4 | 0.372 | > 100 | 0.398 | 14.1 | 0.236 | 10.6 | – | – |
| CN1CCN(Cc2ccc(NC(=O)c3cncc(C#Cc4c(N)ncc5ccc(C#N)cc45)c3)cc2C(F)(F)F)CC1 | 1.4 | 50 | 0.0477 | 0.331 | 0.483 | 1.78 | 0.005 | 0.266 | 3.61 | 14.3 | 0.813 | 1.61 | 0.901 | 1.71 | 0.801 | 2.96 | – | – |
| CCc1ccccc1NC(=O)C(C#N)C1=C(Cl)C(=O)c2ccccc2C1=O (stereo unspecified) | – | 83.3 | – | 19.5 | – | 31.8 | – | > 100 | – | > 100 | – | 35.2 | – | 31.4 | – | > 100 | – | – |
| CS(=O)(=O)N1CCC(n2c(=O)c(Oc3ccc(F)cc3F)cc3cnc(NC4CCOCC4)nc32)CC1 | > 25 | > 25 | > 25 | > 25 | > 25 | > 25 | > 25 | > 25 | > 25 | > 25 | > 25 | > 25 | > 25 | > 25 | > 25 | > 25 | – | – |
| COc1cc2c3c(n(CCCN4CCNCC4)c(=O)c2cc1OC)-c1cc2c(cc1C3=O)OCO2 | 0.00886 | 0.746 | 2.55 | 12.2 | 7.08 | 15.5 | 0.111 | 18.3 | 1.22 | 4.35 | 1.75 | 6.77 | 0.0513 | 0.429 | 0.005 | 0.533 | – | – |
| c1ccc2c(c1)SC(=C1Sc3ccccc3S1)S2 | – | – | – | > 100 | – | – | – | > 100 | – | > 100 | – | – | – | > 100 | – | > 100 | > 100 | > 100 |
| CC1CCCC(C(=O)CC2CC(=O)NC(=O)C2)C1=O (stereo unspecified) | – | > 100 | – | > 100 | – | > 100 | – | > 100 | – | > 100 | – | > 100 | – | > 100 | – | > 100 | – | – |
| C[C@@H](N)COc1ccc(-c2cnc3ccc(N[C@H](C)c4cccc(F)c4)nn23)cc1 | 1.81 | 3.74 | 1.33 | 2.62 | 1.62 | 3.11 | 1.95 | 6.96 | 2.12 | 4.66 | 1.38 | 4.54 | 1.33 | 2.74 | 2 | 6.44 | – | – |
